# Assay results as given in US20260315462A1, “METHODS OF TREATING RELAPSING MULTIPLE SCLEROSIS USING AN INHIBITOR OF BRUTON'S TYROSINE KINASE” (Genentech, Inc., priority 2023, published 2026).
# Like-named read-outs stand apart in the source and are kept apart here.
# Assays:
# Type in all cases: in vivo, human
# [1] = tested on: new or enlarging T2-weighted lesions on brain MRI; test: New or enlarging T2-weighted lesions on brain MRI, Phase II RMS study (secondary endpoint)
# Excerpt: (§1) This Phase II study was undertaken to evaluate the effect of fenebrutinib on brain magnetic resonance imaging (MRI) in participants with RMS. Participants were randomized to receive either fenebrutinib or placebo. In addition to MRI evaluations, participants were also monitored for other clinical outcomes of disease, including disability progression and MS relapse, as described more fully below.
# (§2) Study Design: This clinical trial comprised a double-blind treatment (DBT) phase, where participants were randomized in a 2:1 ratio to receive either 200 mg BID oral fenebrutinib or non-active placebo, administered for 12 weeks. Participants were directed to self-administer two 100 mg tablets in the morning and two 100 mg tablets in the evening by mouth, for a total dose of 400 mg of fenebrutinib (or placebo) every day.
# (§3) A total of 109 adults aged 18-55 with RMS were enrolled in the study: 73 in the fenebrutinib arm, and 36 in the placebo arm. […] Accordingly, the analysis of outcome for the double blind phase of the study included 70 patients in the fenebrutinib arm, and 36 patients in the placebo arm.
# MRI Measurements: The primary efficacy endpoint for this study was the total number of new gadolinium-enhancing T1 (T1Gd+) lesions on brain MRI measured at Weeks 4, 8, and 12 of administration. The secondary efficacy outcomes were (1) the total number of new or enlarging T2-weighted lesions on brain MRI measured at Weeks 4, 8, and 12, and (2) the proportion of participants free from any new Gd-enhancing T1 lesions and new or enlarging T2-weighted lesions observed on brain MRI at Weeks 4, 8, and 12. Radiologic evaluation for the primary efficacy parameter was performed using a standardized MRI protocol at screening, and at Weeks 4, 8, and 12 for each participant.
# Results: Secondary Endpoint-Total Number of New or Enlarging T2-Weighted Lesions at Weeks 4, 8, and 12 combined: This secondary endpoint was met, and a summary of this secondary endpoint analysis is provided in Table 5. FIG. 3 provides bar graphs illustrating some of the data in these tables and providing additional analyses. In this figure, the large arrows indicate the relative reduction (95% confidence interval) of lesions. The proportion of patients with new/enlarging T2-weighted lesions is the number of participants that have a new lesion at that specific visit alone divided by the number of participants with a scan at that specific visit alone at the indicated week. There was a 95% reduction and only 3.2% of patients with new/enlarging lesions at Week 12.
# [2] = tested on: new T1-hypointense lesions on MRI; test: New T1-hypointense lesions on MRI, Phase II RMS study (exploratory endpoint)
# Excerpt: as §1, §2, §3
# (§4) Exploratory Endpoints: Exploratory endpoints included the total number of new T1-hypointense lesions on MRI at weeks 4, 8, and 12; the fenebrutinib concentration in CSF collected at baseline and at or after Week 12; and plasma pharmacokinetics.
# Results: Exploratory Endpoint-Hypointense T1 Lesions: The number of T1 hypointense lesions was evaluated at Week 4, 8, and 12 as an exploratory endpoint. […] FIG. 4 provides bar graphs illustrating some of the data in this table and providing additional analyses. In this figure, the large arrows indicate the relative reduction (95% confidence interval) of lesions. The proportion of patients with new T1 hypointense lesions is the number of participants that have a new lesion at that specific visit alone divided by the number of participants with a scan at that specific visit alone at the indicated week. There was a 58% reduction and only 3.2% of patients with new hypointense T1 lesions at Week 12.
# [3] = Fenebrutinib concentration in CSF and plasma after 12 weeks of continuous administration (exploratory endpoint)
# Excerpt: as §4
# Results: Exploratory Endpoint-Evaluation of CSF: Cerebrospinal samples (CSF) were taken from 11 patients following 12 weeks of continuous fenebrutinib administration. A blood plasma sample was taken at the same time for 4 of the 11 patients. The concentration of fenebrutinib in CSF at 12 Weeks was evaluated, and presented in FIG. 5 in comparison to the IC50 of fenebrutinib (active inhibitory threshold) and the IC90 of fenebrutinib (maximal inhibitory threshold) as evaluated in different in vitro assays. From the figure, (a) the mean fenebrutinib CSF concentration is following 12 weeks of continuous fenebrutinib administration; (1) the data for CD63 and CD69 assays was previously presented as Weber M S, et al. at AAN 2021 Virtual Annual Meeting, April 17-22. (P15.091); and (2) the data for the phospho-BTK assay was previously presented in Keaney J, et al. J Neuroimmune Pharmacol 2019; 14:448-461. Analysis of fenebrutinib concentration in CSF, plasma, and the ratio for the four patients for which a plasma sample was taken is provided in Table 11.
# CD63 is a myeloid lineage cell activation marker; CD69 is a B-cell activation marker; the phospho-BTK assay evaluates target engagement through inhibition of anti-IgM induced BTK Y223 autophosphorylation in human whole blood. Procedures for performing these three assays may be found in Crawford J J, et al. J Med Chem 2018; 6:2227-2245. Fenebrutinib has a dual mechanism of action, inhibiting both B-cell and myeloid lineage cell activation.
# [4] = Week 12, participants with a new lesion at that visit divided by participants with a scan at that visit
smiles,measurement,setting,value
"C[C@H]1CN(C2COC2)CCN1c1ccc(Nc2cc(-c3ccnc(N4CCn5c(cc6c5CC(C)(C)C6)C4=O)c3CO)cn(C)c2=O)nc1 [Fenebrutinib, (S)-2-(3′-(hydroxymethyl)-1-methyl-5-((5-(2-methyl-4-(oxetan-3-yl)piperazin-1-yl)pyridin-2-yl)amino)-6-oxo-1,6-dihydro-[3,4′-bipyridin]-2′-yl)-7,7-dimethyl-2,3,4,6,7,8-hexahydro-1H-cyclopenta[4,5]pyrrolo[1,2-a]pyrazin-1-one]","Number of New or Enlarging T2-Weighted Lesions, Mean (SD), Week 4","[1]; 200 mg BID oral, Week 4, n = 70, min-max 0-21, placebo 1.222 (2.218)",1.043 (2.990)
same,"Number of New or Enlarging T2-Weighted Lesions, Mean (SD), Week 8","[1]; 200 mg BID oral, Week 8, n = 67, min-max 0-4, placebo 0.824 (1.359)",0.104 (0.526)
same,"Number of New or Enlarging T2-Weighted Lesions, Mean (SD), Week 12","[1]; 200 mg BID oral, Week 12, n = 63, min-max 0-1, placebo 0.545 (1.121)",0.032 (0.177)
same,Total Number of New or Enlarging T2-Weighted Lesions,"[1]; 200 mg BID oral, Weeks 4, 8, and 12 combined, N = 70, 201 scans, placebo 90",82
same,"New or Enlarging T2-Weighted Lesion rate, adjusted","[1]; 200 mg BID oral, Weeks 4, 8, and 12 combined, placebo 0.634",0.168
same,"New or Enlarging T2-Weighted Lesion rate, unadjusted","[1]; 200 mg BID oral, Weeks 4, 8, and 12 combined, placebo 0.874",0.408
same,"proportion of patients with new/enlarging T2-weighted lesions, Week 12",[1]; [4],3.2%
same,"Relative Reduction of New or Enlarging T2-Weighted Lesions, Week 4","[1]; vs placebo, Week 4, 95% CI −13%, 77%",49%
same,"Relative Reduction of New or Enlarging T2-Weighted Lesions, Week 8","[1]; vs placebo, Week 8, 95% CI 72%, 96%",90%
same,"Relative Reduction of New or Enlarging T2-Weighted Lesions, Week 12","[1]; vs placebo, Week 12, 95% CI 77%, 99%",95%
same,"Rate Ratio, adjusted (new or enlarging T2-weighted lesions)","[1]; vs placebo, Weeks 4, 8, and 12 combined, 95% CI (0.128, 0.550)",0.265
same,Relative Reduction in new or enlarging T2-weighted lesions,"[1]; vs placebo, Weeks 4, 8, and 12 combined, 95% CI (45.0%, 87.2%), p-value 0.0004",73.5%
same,"Relative Reduction of New or Enlarging T2-Weighted Lesions, Weeks 8 and 12","[1]; vs placebo, Weeks 8 and 12",93%
same,effect on T1 hypointense lesions,"[2]; Week 4, 8, and 12, compared to placebo",reduced T1 hypointense lesions at all three time points
same,"proportion of patients with new T1 hypointense lesions, Week 12",[2]; [4],3.2%
same,patients with new T1 hypointense lesions after Week 4,"[2]; after Week 4 of treatment, compared to placebo",few patients had new lesions after Week 4 of treatment
same,"Relative Reduction of T1 hypointense lesions, Week 4","[2]; vs placebo, Week 4, 95% CI −106%, 87%",48%
same,"Relative Reduction of T1 hypointense lesions, Week 8","[2]; vs placebo, Week 8, 95% CI −62%, 92%",64%
same,"Relative Reduction of T1 hypointense lesions, Week 12","[2]; vs placebo, Week 12, 95% CI −131%, 92%",58%
same,"Relative Reduction of T1 hypointense lesions, Weeks 4, 8, and 12","[2]; vs placebo, Weeks 4, 8, and 12, 95% CI −12%, 89%",64%
same,presence in CSF relative to in vitro activity,[3]; after 12 weeks of continuous administration,present in the CSF at levels sufficient to reduce activation of B cells and microglia progenitor cells in vitro
same,concentration at 2016 h,"[3]; human, csf, po, 200 mg, 11 patients, following 12 weeks of continuous administration, read-out: mean fenebrutinib CSF concentration",43.1 ng/mL
same,concentration at 2016 h,"[3]; human, csf, po, 200 mg, n = 4 patients, after 12 weeks of continuous administration, 200 mg BID oral, read-out: CSF concentration, Median (min, max)",50.2 ng/mL
same,Kp at 2016 h,"[3]; human, csf, po, 200 mg, n = 4 patients, after 12 weeks of continuous administration, total plasma, read-out: CSF:plasma ratio, Median (min, max)",0.061
same,concentration at 2016 h,"[3]; human, plasma, po, 200 mg, n = 4 patients, after 12 weeks of continuous administration, 200 mg BID oral, read-out: Total plasma concentration, Median (min, max)",691 ng/mL
